Data set [1] can be described thus: Octanol-water partition coefficient, log P of the compound.
The nature of another data set: in vivo. To be noted: rat, po.
Data set [2] is described as follows: Toxicity in po dosed mouse. The settings on record: in vivo.
A further data set deals with Leishmania donovani. In words: Antileishmanial activity against Leishmania donovani. The format is functional, organism-based.

Take `CCCN(CCC)c1c([N+](=O)[O-])cc(S(N)(=O)=O)cc1[N+](=O)[O-]` [ORYZALIN]: the logP (usually a log measure of how a compound divides between an organic and an aqueous phase) in data set [1] came to 3.38. The LD50 (usually the dose at which mortality reaches 50%) in “in vivo” came out at 1400 mg/kg; in data set [2], 1600 mg/kg.

Take `O=[N+]([O-])c1ccc(Oc2c(Cl)cccc2Cl)c([N+](=O)[O-])c1Oc1c(Cl)cccc1Cl`: inhibition in the data set with Leishmania donovani was half-maximal at 80 µM (IC50).

`Cc1cc(S(=O)(=O)c2c([N+](=O)[O-])cc(C#N)cc2[N+](=O)[O-])c(Cl)cc1Cl`: in data set [1], the logP turned out to be 4.08. The LD50 in “in vivo” came out at 1000 mg/kg; in data set [2], 1100 mg/kg.

In data set [1], `Cc1cc(NS(=O)(=O)c2c([N+](=O)[O-])cc([N+](=O)[O-])cc2C(F)(F)F)c(Cl)cc1Cl` came in with a log partition coefficient (logP) of 6.44. Besides, the results for the LD50 (in the data set “in vivo”; in data set [2]) were 350 mg/kg and 650 mg/kg, respectively.

`O=[N+]([O-])c1cc(C(F)(F)F)cc([N+](=O)[O-])c1Sc1ccc(Cl)cc1Cl` showed a logP in data set [1] of 6.73. Also, the results for the LD50 (in the data set “in vivo”; in data set [2]) were 600 mg/kg and 780 mg/kg, respectively.

In data set [1], `Cc1cc(S(=O)(=O)c2c([N+](=O)[O-])cc(C(F)(F)F)cc2[N+](=O)[O-])c(Cl)cc1Cl` came in with a logP of 5.72. Further, the 50% lethal dose (LD50) in the data set “in vivo” was 1200 mg/kg; in data set [2] it was 1800 mg/kg.

`CCCN(CCC)c1c([N+](=O)[O-])cc(C(N)=O)cc1[N+](=O)[O-]`: in the data set on Leishmania donovani, the half-inhibitory concentration (IC50) (as a rule, the concentration needed to halve the response being measured) is 32 µM. That is a double-digit micromolar value.

Regarding `O=[N+]([O-])c1cc([N+](=O)[O-])c(S(=O)(=O)Nc2cccc(F)c2)c(C(F)(F)F)c1`, the logP in data set [1] stood at 4.39. The figures for the LD50 (in “in vivo”; in data set [2]) were 620 mg/kg and 880 mg/kg, respectively.

In data set [1], `CCCN(CCC)c1c([N+](=O)[O-])cc(Sc2ccc(OC)cc2)cc1[N+](=O)[O-]` had a lipophilicity (logP) of 6.53. Further, the LD50 in the data set “in vivo” was found to be 1900 mg/kg; in data set [2], 1600 mg/kg.

With `CCCN(CCC)c1c([N+](=O)[O-])cc(Sc2cc(C)c(Cl)cc2Cl)cc1[N+](=O)[O-]`, the logP in data set [1] stood at 8.66. Besides, the LD50 in the data set “in vivo” came out at 1600 mg/kg; in data set [2], 1800 mg/kg.

On to `N#Cc1cc([N+](=O)[O-])c(S(=O)(=O)Nc2cccc(F)c2)c([N+](=O)[O-])c1`, for which, in data set [1], the logP came out at 2.51. In addition, the LD50 was 1200 mg/kg in “in vivo” and 1300 mg/kg in data set [2].

`COc1ccc(Sc2c([N+](=O)[O-])cc(C#N)cc2[N+](=O)[O-])cc1` showed a log partition coefficient (logP) in data set [1] of 3.56. Besides, the 50% lethal dose (LD50) in “in vivo” is 1400 mg/kg; in data set [2], 1100 mg/kg. Further, in the data set on Leishmania donovani, the IC50 is 0.67 µM.

For `Cc1cc(Sc2ccc(C(F)(F)F)cc2[N+](=O)[O-])c(Cl)cc1Cl`, the concentration for half-maximal inhibition (IC50) in the data set with Leishmania donovani was 59 µM.

The compound `CCCN(CCC)c1c([N+](=O)[O-])cc(S(=O)(=O)Nc2ccc(OC)cc2)cc1[N+](=O)[O-]` showed an IC50 in the data set on Leishmania donovani of 76 µM. The IC50 values of the last two compounds are within 1.5-fold of each other.

For `CCCCCCN(CCCCCC)c1c([N+](=O)[O-])cc(S(N)(=O)=O)cc1[N+](=O)[O-]`, the IC50 in the data set with Leishmania donovani was 12 µM.

In turn, `Cc1nc(Sc2nccn2-c2cc(Cl)ccc2Cl)c(C(=O)O)cc1C#N` showed an IC50 in the data set on Leishmania donovani of 21 µM.

For the compound `O=C1NC(=O)c2cc([N+](=O)[O-])c(Sc3c(Cl)cccc3Cl)cc21`, the IC50 with Leishmania donovani is 60 µM.

In the data set on Leishmania donovani, `Cc1cc(Sc2ncc(C(F)(F)F)cc2[N+](=O)[O-])c(Cl)cc1Cl` showed an IC50 of 98.2 µM. Against the preceding compound, the IC50 is about 1.6-fold higher.
